From patent US10501479B2, “Benzenesulfonyl-asymmetric ureas and medical uses thereof” (HELSINN HEALTHCARE SA, priority 2016, dated 2019)
pEC50, pIC50: −log10 of the molar value. Values joined by “and” are separate entries in the source; they are usually repeats but may differ in a detail not shown here. Equal entries are not always repeated. Where two headings read alike, the source gives them in different places.

Assays:
[1] = biological target: T1, GHSR-1a (HEK293/GHSR1a cell line) (Homo sapiens, UniProt Q92847); assay: Ghrelin antagonist potency (IC50) with calcium FLIPR assay, ghrelin 10 nM; format: cell-based
T1 construct: expressed in transfected cells; host or cells: HEK293/GHSR1a cell line
T1 sequence (Q92847 whole entry): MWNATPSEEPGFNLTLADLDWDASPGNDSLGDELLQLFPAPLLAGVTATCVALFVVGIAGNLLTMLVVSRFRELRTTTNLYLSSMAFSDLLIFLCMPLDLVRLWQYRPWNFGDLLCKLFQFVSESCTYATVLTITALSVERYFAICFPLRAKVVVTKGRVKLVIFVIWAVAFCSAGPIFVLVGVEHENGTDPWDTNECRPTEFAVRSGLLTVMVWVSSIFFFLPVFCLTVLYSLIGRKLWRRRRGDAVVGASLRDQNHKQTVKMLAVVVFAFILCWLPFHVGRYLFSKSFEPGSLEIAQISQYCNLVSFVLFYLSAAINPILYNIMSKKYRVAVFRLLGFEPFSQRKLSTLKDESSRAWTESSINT
Method in brief: (§1)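 Cells seeded 24 h before the run were loaded with calcium dye for 30-60 min at room temperature or 37° C. For agonism, compound was added at t=20 sec and the calcium signal followed for 2 minutes. For antagonism, compound plus ghrelin (10 nM) went on at t=20 sec, and IC50 reflected the drop in ghrelin response.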

[2] = Metabolic stability in human liver microsomes; format: in vitro ADME
Method in brief: (§2)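 Test compounds were incubated with liver microsomes in 100 mM potassium phosphate buffer, pH 7.4, at 37 °C, with reactions started by an NADPH regenerating system after a 5 min preincubation. Samples taken at 0, 10, 30 and 90 min were quenched cold, centrifuged, and parent remaining was quantified by LC-MS/MS.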

[3] = Animal PK study in mouse via i.v., p.o. and s.c. administration; format: in vivo; details: for PK CLiv / PK Vdiv / PK t1/2iv: i.v.; for PK CLpo / PK Vdpo / PK t1/2po: p.o.
Method: All treated animals received a single dose of a test compound (either through i.v., p.o., or s.c. administration) according to the regimen shown in the following table:
For oral dose groups, appropriate amount of test compound was prepared in the following formulation carrier: 1% DMSO (increase to 5% maximum if necessary) and 0.5% Methycellulose. Each mouse or rat received by oral gavage 10 mL/kg of the formulation mixture.
For i.v. and s.c dose groups, appropriate amount of test compound was dissolved in 1% DMSO (increase to 5% maximum if necessary), 99% of 20% HP-β-Cyclodextron (w/v). The pH was adjusted accordingly. Each mouse or rat received 5 mL/kg of the formulation mixture. i.v. dose was administered by tail vein injection. Subcutaneous injection was administered over the shoulders, into the loose skin over the neck. At designated time points (e.g., i.v. and s.c.: 0.083, 0.25, 0.5, 1, 2, 4, 8 and 24 hrs; p.o.: 0.25, 0.5, 1, 2, 4, 8 and 24 hrs), systemic samples of blood (50 μL in mouse or 500 μL in rat) were collected by puncture (submandibular vein in mouse or jugular vein in rat) into vacutainers containing EDTA-K2 as anti-coagulant. The blood was centrifuged at 6000 rpm for 8 min at 4° C. to obtain plasma. All plasma samples were stored at −20° C. All plasma samples were added to acetonitrile for protein precipitation and quantitatively analyzed by LC-MS/MS.

[4] = Metabolic stability in mouse liver microsomes; format: in vitro ADME
Method in brief: as §2

[5] = biological target: T2, recombinant human ghrelin receptor (HEK293/GRLN) (Homo sapiens, UniProt Q92847); assay: Ghrelin inverse agonist potency (EC50) with IP-1 (IP-One HTRF) assay; format: cell-based; details: IP-1 assay
T2 construct: expressed in transfected cells
T2 sequence (Q92847 whole entry): as above
Method in brief: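 HEK293/GRLN cells were seeded 18-22 hours before the test, then exposed to compound in stimulation buffer for 1 hour at 37° C, 5% CO2. IP-1 was detected by IP-One HTRF (IP1-d2 plus Tb-cryptate, 1 hour RT), reading 620 and 665 nm; the inverse agonist EC50 was derived from this.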

[6] = biological target: T1, GHSR-1a (HEK293/GHSR1a cell line); assay: Ghrelin agonist potency (EC50) with calcium FLIPR assay; format: cell-based
Method in brief: as §1

[7] = ghrelin antagonist potency, read-out: IC50 (Activity)
[8] = HEK293/GRLN, read-out: Activity EC50 (ghrelin inverse agonist potency)
[9] = HEK293/GHSR1a, ghrelin 10 nM, read-out: Activity IC50 (ghrelin antagonist potency)
[10] = HEK293/GHSR1a, read-out: Activity EC50/EMax: EC50 (ghrelin agonist potency)
[11] = ghrelin inverse agonist potency, read-out: Activity EC50
[12] = ghrelin antagonist potency, read-out: Activity IC50
[13] = ghrelin agonist potency, read-out: Activity EC50/EMax

Row | SMILES | Metabolic Stability Study H = human [2] | Metabolic Stability Study M = mouse [4] | pEC50 [5, 8] | pIC50 [1, 9] | pEC50 [6, 10] | further results
1 | COc1ccc([C@H](C)NC(=O)Nc2ccc(S(=O)(=O)Cc3ccc4c(c3)CCN(C(C)=O)C4)cc2)c(Cl)c1Cl [H1025, (S)-1-(4-(((2-acetyl-1,2,3,4-tetrahydroisoquinolin-6-yl)methyl)sulfonyl)phenyl)-3-(1-(2,3-dichloro-4-methoxyphenyl)ethyl)urea] | 92.4 µL/min/mg | 159.5 µL/min/mg | – | – | – | pIC50 [1, 7]: 4.67; PK F [3]: 5.92%; PK CLiv [3]: 30.7 mL/min/kg; PK Vdiv [3]: 2.86 L/kg; PK t1/2iv [3]: 1.08 h; PK CLpo [3]: 514.8 mL/min/kg; PK Vdpo [3]: 94.83 L/kg; PK t1/2po [3]: 1.45 h
2 | CC(NC(=O)Nc1ccc(S(=O)(=O)Cc2ccc3c(c2)CNC3)cc1)c1cccc2ccccc12.Cl (stereo not drawn) [H1149, 1-(4-((isoindolin-5-ylmethyl)sulfonyl)phenyl)-3-(1-(naphthalen-1-yl)ethyl)urea] | 21.1 µL/min/mg | 24.3 µL/min/mg | – | – | – | pEC50 ([5]; inverse agonist potency, read-out: EC50 (Activity)): 8.77 and 8.62; pIC50 [1, 7]: 8.32; PK F [3]: 0.86%; PK CLiv [3]: 16.3 mL/min/kg; PK Vdiv [3]: 1.22 L/kg; PK t1/2iv [3]: 0.87 h; PK CLpo [3]: 1792 mL/min/kg; PK Vdpo [3]: 272 L/kg; PK t1/2po [3]: 1.75 h
3 | CC(NC(=O)Nc1ccc(S(=O)(=O)Cc2ccc3c(c2)CNC3)cc1)c1cccc(F)c1 (stereo not drawn) [H1269, 1-(1-(3-fluorophenyl)ethyl)-3-(4-((isoindolin-5-ylmethyl)sulfonyl)phenyl)urea] | 25.7 µL/min/mg | 23.6 µL/min/mg | 8.06 | 7.62 | < 4.52 | –
4 | CC(NC(=O)Nc1ccc(S(=O)(=O)Cc2ccc3c(c2)CN(C)C3)cc1)c1c(F)cccc1F (stereo not drawn) [H1429, 1-(1-(2,6-difluorophenyl)ethyl)-3-(4-(((2-methylisoindolin-5-yl)methyl)sulfonyl)phenyl)urea] | 65.2 µL/min/mg | 63.6 µL/min/mg | 8.14 | 6.80 | < 4.52 | –
5 | CC(NC(=O)Nc1ccc(S(=O)(=O)Cc2cnc3c(c2)CN(C)C3)cc1)c1ccccc1 (stereo not drawn) [H1323, 1-(4-(((6-methyl-6,7-dihydro-5H-pyrrolo[3,4-b]pyridin-3-yl)methyl)sulfonyl)phenyl)-3-(1-phenylethyl)urea] | 84.1 µL/min/mg | 58.5 µL/min/mg | 6.99 | 6.61 | < 4.52 | –
6 | CC(NC(=O)Nc1ccc(S(=O)(=O)Cc2cc3c(cc2F)CNCC3)cc1)c1cccc(Cl)c1Cl (stereo not drawn) [H1385, 1-(1-(2,3-dichlorophenyl)ethyl)-3-(4-(((7-fluoro-1,2,3,4-tetrahydroisoquinolin-6-yl)methyl)sulfonyl)phenyl)urea] | H = <10 M = <10 μL/min/mg | H = <10 M = <10 μL/min/mg | 8.19 | 8.40 | < 4.52 | –
7 | CC(NC(=O)Nc1ccc(S(=O)(=O)Cc2ccc3c(c2)CCN(C)C3)cc1)c1ccccc1Cl (stereo not drawn) [H1344, 1-(1-(2-chlorophenyl)ethyl)-3-(4-(((2-methyl-1,2,3,4-tetrahydroisoquinolin-6-yl)methyl)sulfonyl)phenyl)urea] | 53.5 µL/min/mg | 115.7 µL/min/mg | 8.39 | 8.36 | < 4.52 | –
8 | CC(NC(=O)Nc1ccc(S(=O)(=O)Cc2ccc3c(c2)CN(C)C3)c(O)c1)c1ccccc1.O=C(O)C(F)(F)F (stereo not drawn) [H1487, 1-(3-hydroxy-4-(((2-methylisoindolin-5-yl)methyl)sulfonyl)phenyl)-3-(1-phenylethyl)urea] | 26.1 µL/min/mg | 16.9 µL/min/mg | – | – | – | pEC50 [5, 11]: 8.24; pIC50 [1, 12]: 7.73; pEC50 [6, 13]: < 4.52
9 | Cc1oc(=O)oc1COC(=O)N1Cc2ccc(CS(=O)(=O)c3ccc(NC(=O)NC(C)c4ccccc4)cc3)cc2C1 (stereo not drawn) [H1256, (5-methyl-2-oxo-1,3-dioxol-4-yl)methyl 5-(((4-(3-(1-phenylethyl)ureido)phenyl)sulfonyl)methyl)isoindoline-2-carboxylate] | 268.4 µL/min/mg | 272.6 µL/min/mg | 6.91 | 7.05 | < 4.52 | –
10 | CC(NC(=O)Nc1ccc(S(=O)(=O)Cc2cc3c(s2)CN(C)CC3)cc1)c1cccc(Cl)c1Cl (stereo not drawn) [H1384, 1-(1-(2,3-dichlorophenyl)ethyl)-3-(4-(((6-methyl-4,5,6,7-tetrahydrothieno[2,3-c]pyridin-2-yl)methyl)sulfonyl)phenyl)urea] | 95.1 µL/min/mg | 165.1 µL/min/mg | 8.62 | 8.23 | < 4.52 | –
11 | CC(NC(=O)Nc1ccc(S(=O)(=O)Cc2ccc3c(c2)CNC3)cc1)c1cccc(Cl)c1 (stereo not drawn) [H1260, 1-(1-(3-chlorophenyl)ethyl)-3-(4-((isoindolin-5-ylmethyl)sulfonyl)phenyl)urea] | 38.9 µL/min/mg | 24.7 µL/min/mg | 8.36 | 8.43 | < 4.52 | –
12 | Cc1cc(S(=O)(=O)Cc2ccc3c(c2)CN(C)C3)ccc1NC(=O)NC(C)c1ccccc1 (stereo not drawn) [H1447, 1-(2-methyl-4-(((2-methylisoindolin-5-yl)methyl)sulfonyl)phenyl)-3-(1-phenylethyl)urea] | 72.5 µL/min/mg | 42.6 µL/min/mg | 8.19 | 7.00 | < 4.52 | –
13 | COc1cc(S(=O)(=O)Cc2ccc3c(c2)CNC3)ccc1NC(=O)N(O)C(C)c1ccccc1 (stereo not drawn) [H1517, 1-hydroxy-3-(4-((isoindolin-5-ylmethyl)sulfonyl)-2-methoxyphenyl)-1-(1-phenylethyl)urea] | 25.6 µL/min/mg | 56.6 µL/min/mg | – | – | – | pEC50 [5, 11]: 8.17; pIC50 [1, 12]: 7.98; pEC50 [6, 13]: < 4.52
14 | CC1Cc2cc(CS(=O)(=O)c3ccc(NC(=O)NC(C)c4ccccc4)cc3)ccc2CN1 (stereo not drawn) [H1406, 1-(4-(((3-methyl-1,2,3,4-tetrahydroisoquinolin-6-yl)methyl)sulfonyl)phenyl)-3-(1-phenylethyl)urea] | 15 µL/min/mg | 22.2 µL/min/mg | 8.10 | 7.07 | < 4.52 | –
